The values below come from US11168283B2, “Malodor counteracting ingredients” (Firmenich SA, priority 2017, dated 2021).

This assay has as its target T1, butyric acid olfactory receptor OR51E1 (Homo sapiens, UniProt Q8TCB6).
T1 construct: expressed in transfected cells
T1 sequence (Q8TCB6 1-318): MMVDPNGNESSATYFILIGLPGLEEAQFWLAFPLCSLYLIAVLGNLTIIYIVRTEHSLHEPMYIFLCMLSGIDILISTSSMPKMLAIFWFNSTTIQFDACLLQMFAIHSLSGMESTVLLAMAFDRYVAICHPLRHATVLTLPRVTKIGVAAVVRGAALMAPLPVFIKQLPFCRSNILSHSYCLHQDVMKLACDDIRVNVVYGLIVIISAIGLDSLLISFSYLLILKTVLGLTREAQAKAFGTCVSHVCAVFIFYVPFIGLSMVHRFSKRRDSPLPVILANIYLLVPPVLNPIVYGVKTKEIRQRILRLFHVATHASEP
In words: Inhibitory dose-response assay in a cell line expressing the OR51E1 olfactory receptor, in the presence of butyric acid (EC87). Particulars: maximum % inhibition of butyric acid (EC87) induced OR51E1 activity, normalized to baseline agonist activity. In kind it is cell-based.

As to `CC1CC(C)(C=NO)C2C[C@H]3CC[C@]12C3` (some centres unmarked) [~{N}-[[(1~{S},7~{R})-2,4-dimethyl-4-tricyclo[5.2.1.0^1,5]decanyl]methylidene]hydroxylamine], the “Inhibition (%)” value came to 38%. For the compound `CC(=NO)C1C(C)C(C)[C@@]23CC[C@H](CC12)C3` (some centres unmarked) [~{N}-[1[(1~{S},7~{R})-2,3-dimethyl-4-tricyclo[5.2.1.0^1,5]decanyl]ethylidene]hydroxylamine], the “Inhibition (%)” value is given as 19%.
